Source: article PMC11256326, “Discovery of Heparin Mimetic, Potent, and Selective Inhibitors of Human Clotting Factor XIIIa” (ACS Omega, 2024)

How the values were obtained:
[1] = molecular target: T1, rTG-2 (recombinant human tissue transglutaminase-2) (Homo sapiens, UniProt P21980); assay: bisubstrate, fluorescence-based trans-glutamination assay with recombinant TG-2; format: biochemical
T1 construct: purchased Tocris Bioscience
T1 sequence (P21980 1-687): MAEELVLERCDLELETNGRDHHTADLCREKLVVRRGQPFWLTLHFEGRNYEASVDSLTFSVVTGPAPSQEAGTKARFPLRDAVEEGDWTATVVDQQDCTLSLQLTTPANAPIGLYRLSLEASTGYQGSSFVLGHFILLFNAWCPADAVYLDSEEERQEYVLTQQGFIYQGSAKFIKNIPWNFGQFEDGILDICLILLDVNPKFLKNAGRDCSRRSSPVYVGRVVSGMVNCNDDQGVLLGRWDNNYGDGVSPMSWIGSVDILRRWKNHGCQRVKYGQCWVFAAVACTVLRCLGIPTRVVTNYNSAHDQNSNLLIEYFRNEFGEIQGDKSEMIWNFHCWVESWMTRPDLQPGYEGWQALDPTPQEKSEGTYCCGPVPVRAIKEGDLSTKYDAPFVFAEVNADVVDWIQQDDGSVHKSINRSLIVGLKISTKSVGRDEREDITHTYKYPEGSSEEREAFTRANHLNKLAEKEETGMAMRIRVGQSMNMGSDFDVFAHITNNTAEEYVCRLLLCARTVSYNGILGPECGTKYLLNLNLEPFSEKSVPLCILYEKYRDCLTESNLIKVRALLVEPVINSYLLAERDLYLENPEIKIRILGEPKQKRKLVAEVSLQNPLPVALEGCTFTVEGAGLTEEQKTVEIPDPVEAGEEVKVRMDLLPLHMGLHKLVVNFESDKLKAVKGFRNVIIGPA
Text: (§1) FXIIIa and TG-2 belong to the same transglutaminase superfamily, and they share similar protein folds with a sequence similarity of 34%. Although we believe that sulfonated heparin mimetics are less likely to distribute to peripheral tissues, we evaluated inhibitor 16′s potential to inhibit TG-2 (we used recombinant TG-2). […] Likewise, we studied the inhibition of papain, a related cysteine protease, by molecule 16.
Human plasma proteins such as FXIIIa, thrombin, factor Xa, and factor XIa were procured from Haematologic Technologies. Recombinant human TG-2 was sourced from Tocris Bioscience. Their activities were validated according to the supplier’s instructions. Chromogenic substrates for thrombin and factor Xa were acquired from Biomedica Diagnostics, while the factor XIa chromogenic substrate (S-2366) was obtained from Diapharma. Dithiothreitol, N,N-dimethylcasein, and dansylcadaverine were purchased from Sigma Aldrich. Stock solutions of thrombin and factor XIa were prepared in 50 mM Tris-HCl buffer, pH 7.4, containing 150 mM sodium chloride, 0.1% PEG8000, and 0.02% Tween80. The stock solution of factor Xa was prepared in 20 mM Tris-HCl buffer, pH 7.4, containing 100 mM sodium chloride, 0.1% PEG8000, 2.5 mM CaCl2, and 0.02% Tween80. The stock solutions of FXIIIa and rTG-2 were prepared in 50 mM Tris-HCl, 1 mM CaCl2, 100 mM sodium chloride, 0.02% Tween80, 0.1% PEG8000, and 2 mg/mL dimethylcasein. Papain and its chromogenic substrate (N-α-benzoyl-L-arginyl-4-nitroanilide) were obtained from Sigma Aldrich. Papain was prepared in 50 mM Tris-HCl buffer, pH 7.4, containing 100 mM NaCl, 100 mM DTT, 2.5 mM CaCl2, 0.1% PEG8000, and 0.02% Tween80. Human plasma for coagulation assays was obtained from George King Bio-Medica for the clotting assays. Thromboplastin-D (PT reagent), APTT reagent containing ellagic acid, and 0.025 M solution of CaCl2 were obtained from Thermo Fisher Scientific. Results were reproduced at least three times.
For tissue TG-2, a recombinant protein (rTG-2) was used in a bisubstrate, fluorescence-based trans-glutamination assay involving dansylcadaverine and N,N-dimethylcasein as substrates and under similar conditions used for human FXIIIa above. The activity of rTG-2 was monitored following the addition of 5 μL of dansylcadaverine (2 mM) by measuring the initial rate of increase in fluorescence emission (λEx. = 360 nm and λEm. = 490 nm). Relative residual rTG-2 activity at each concentration of inhibitor 16 was calculated from the ratio of rTG-2 activity in the presence and absence of the inhibitor. Logistic eq 1 was used to fit the concentration dependence of residual rTG-2 activity to obtain the IC50 and ΔY% of inhibition.

papain = molecular target: T2, papain (Carica papaya, UniProt P00784); assay: papain chromogenic substrate assay; format: biochemical
T2 construct: purchased Sigma Aldrich
T2 sequence (P00784 134-345): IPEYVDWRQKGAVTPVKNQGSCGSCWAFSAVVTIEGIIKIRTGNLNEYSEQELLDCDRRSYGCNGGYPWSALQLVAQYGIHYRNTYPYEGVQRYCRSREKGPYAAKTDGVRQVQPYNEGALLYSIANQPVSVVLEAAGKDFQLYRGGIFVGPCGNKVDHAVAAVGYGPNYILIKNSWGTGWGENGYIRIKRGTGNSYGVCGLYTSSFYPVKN
Text: as §1
Direct inhibition of papain, a cysteine protease, by inhibitor 16 was also evaluated using a chromogenic substrate assay on a microplate reader as reported earlier.[36] Briefly, to each well of a 96-well microplate containing 91 μL of 50 mM Tris-HCl buffer, pH 7.4, containing 100 mM NaCl, 2.5 mM CaCl2, 100 mM DTT, 0.1% PEG8000, and 0.02% Tween80 was added 5 μL of inhibitor 16 (0–20 mM) or vehicle, and 3 μL of papain (130 U/mL) at 37 °C. After 5 min incubation, 1 μL of N-α-benzoyl-L-arginine 4-nitroanilide hydrochloride, the chromogenic substrate (17.7 mM) was rapidly added, and the residual enzyme activity was measured from the initial rate of increase in absorbance at 405 nm. Relative residual enzyme activity as a function of the inhibitor concentration was measured and inhibition parameters were calculated using logistic eq 1.

With Nc1c(/N=N/c2ccc(S(=O)(=O)CCOS(=O)(=O)O)cc2)c(S(=O)(=O)O)cc2cc(S(=O)(=O)O)c(/N=N/c3ccc(S(=O)(=O)CCOS(=O)(=O)O)cc3)c(O)c12 [compound 16] the “selectivity for FXIIIa over rTG-2” value [1] was 9 fold, the IC50 ([1]; recombinant TG-2) was 18.1 ± 3.1 µM and the “rTG-2 HS (Hill slope)” value ([1]; recombinant TG-2) was 2.2 ± 0.9. For the same molecule, the “rTG-2 ΔY” value ([1]; recombinant TG-2) was 86 ± 7%, the “selectivity for FXIIIa over papain” value (papain) was greater than 200 fold and the “papain inhibition at the highest concentration tested” value (papain; 500 μM) was “did not inhibit”.
